Reference: patent EP0423419B1, “Inhibitive agent against activity of alpha-amylase” (MITSUI NORIN CO., LTD., priority 1989, dated 1991)
pIC50: −log10 of the molar value. Read-outs that look alike come from different tables or passages of the source.

Assays:
[1] = molecular target: T1, α-amylase prepared from human saliva (Homo sapiens, UniProt P0DUB6); test: Inhibition of the activity of α-amylase (reducing sugar from soluble starch, Bernfeld method); format: biochemical
T1 construct: α-amylase prepared from human saliva; purchased Sigma Co; host or cells: human saliva
T1 sequence (P0DUB6 16-511): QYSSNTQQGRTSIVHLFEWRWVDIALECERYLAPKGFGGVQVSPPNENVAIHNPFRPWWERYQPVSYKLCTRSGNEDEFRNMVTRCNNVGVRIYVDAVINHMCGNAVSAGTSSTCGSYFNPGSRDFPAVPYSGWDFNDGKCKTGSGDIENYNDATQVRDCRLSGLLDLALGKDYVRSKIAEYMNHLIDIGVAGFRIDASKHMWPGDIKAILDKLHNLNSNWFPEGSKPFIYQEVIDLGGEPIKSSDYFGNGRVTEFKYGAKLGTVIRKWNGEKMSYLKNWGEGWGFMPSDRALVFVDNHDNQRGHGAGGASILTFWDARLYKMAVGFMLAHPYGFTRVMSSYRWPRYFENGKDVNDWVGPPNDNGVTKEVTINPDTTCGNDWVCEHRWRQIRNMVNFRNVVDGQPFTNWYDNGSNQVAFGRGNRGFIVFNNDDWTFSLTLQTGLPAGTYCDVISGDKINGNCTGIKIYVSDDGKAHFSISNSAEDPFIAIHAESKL
Method: The enzyme used here was a product of α-amylase prepared from human saliva and supplied by Sigma Co.
A 150 µl of the enzyme solution (0.44 U/ml in a buffer solution) was added to 1230 µl of the sample solution and the mixture was incubated at 37°C for 10 minutes. Thereafter, the sample solution was admixed with 120 µl of a solution of soluble starch as the substrate so as to have a final concentration of the substrate of 2.0 mg/ml to effect the reaction at 37°C. A 200 µl aliquot of the solution was taken in every 3 minutes from the solution while the reaction was proceeding and the reducing sugar produced therein was determined by the measurement of the absorbance at a wave-length of 540 nm according to the method of Bernfeld described in Meth. […] The value of the absorbance was converted by calculation into the amount of maltose present and from this the reaction velocity was calculated according to the conventional procedure.

[2] = Acute toxicity in mice (LD50); details: mouse, in vivo, ip; intraperitoneal administration, ICR mice, Van der Waerden method; read-out: LD₅₀
Method: An animal test was conducted by using ICR mice as the test animals to examine the acute toxicity of the inventive inhibitive agent against the activity of α-amylase. The values of LD₅₀ calculated according to the Van der Waerdrn method within the confidence limit were: 2412 mg/kg in the oral administration of the same crude mixture of catechin compounds as used in Example 2; 55.2 mg/kg in the intraperitoneal administration of a crude mixture of theaflavin compounds of the composition shown in Table 5 below; and 150 mg/kg in the intraperitoneal administration of epigallocatechin gallate.

[3] = human saliva α-amylase, 10 min preincubation at 37°C, soluble starch 2.0 mg/ml, read-out: Concentration for 50% inhibition

## O=c1c(O)cc([C@H]2Oc3cc(O)cc(O)c3C[C@H]2O)cc2c([C@H]3Oc4cc(O)cc(O)c4C[C@H]3O)cc(O)c(O)c12 [Free theaflavin, free theaflavin]
[1]; [3]
  pIC50: 4.74

## O=C(O[C@@H]1Cc2c(O)cc(O)cc2O[C@@H]1c1cc(O)c(O)c2c(=O)c(O)cc([C@H]3Oc4cc(O)cc(O)c4C[C@H]3O)cc12)c1cc(O)c(O)c(O)c1 [Theaflavin monogallate B, theaflavin monogallate B]
[1]; [3]
  pIC50: 5.77

## Oc1cc(O)c2c(c1)O[C@H](c1ccc(O)c(O)c1)[C@H](O)C2 [Epicatechin, (-)epicatechin]
[1]; [3]
  pIC50: < 3.00

## O=C(O[C@@H]1Cc2c(O)cc(O)cc2O[C@@H]1c1cc(O)c(O)c(O)c1)c1cc(O)c(O)c(O)c1 [Epigallocatechin gallate, (-)epigallocatechin gallate]
[1]; [3]
  pIC50: 3.59
[2]
  LD50: 150 mg/kg

## Oc1cc(O)c2c(c1)O[C@H](c1cc(O)c(O)c(O)c1)[C@H](O)C2 [Epicagallcatechin, (-)epigallocatechin]
[1]; [3]
  pIC50: < 3.00

## O=C(O[C@@H]1Cc2c(O)cc(O)cc2O[C@@H]1c1ccc(O)c(O)c1)c1cc(O)c(O)c(O)c1 [Epicatechin gallate, (-)epicatechin gallate]
[1]; [3]
  pIC50: 3.89

## O=C(O[C@@H]1Cc2c(O)cc(O)cc2O[C@@H]1c1cc(O)c(=O)c2c(O)c(O)cc([C@H]3Oc4cc(O)cc(O)c4C[C@H]3O)c2c1)c1cc(O)c(O)c(O)c1 [Theaflavin monogallate A, theaflavin monogallate A]
[1]; [3]
  pIC50: 6.00

## O=C(O)c1cc(O)c(O)c(O)c1 [Gallic acid, reference compound]
[1]
  pIC50: < 3.00
